Test results from PubChem BioAssay AID1963962 (Molecular Pharmacology Branch, DTP, NCI, 2024).

Test system: 967376-340-R-J2-PDC multicell spheroid viability
Assay: Anticancer human tumor 967376-340-R-J2-PDC patient-derived colon adenocarcinoma cell line growth inhibition [PI3K]
Details: for IC50: curve of first compound; for viability, T/C: stronger effect = lower value
How it was run: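 Tumor cells grown as multi-cell spheroids with HUVEC endothelial cells and MSC fibroblast-like stroma were treated with targeted agents combined with inavolisib, alpelisib, duvelisib or copanlisib. Doses fell in half-log steps from near clinical Cmax, else from 10 microM. Viability was measured.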
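Further: spheroids exposed to agents for 7 days before read-out.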
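Wherever viability, T/C is given: luminescence used as surrogate of cell viability.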

SMILES: Cn1cnc2c(F)c(Nc3ccc(Br)cc3Cl)c(C(=O)NOCCO)cc21 + CC(Nc1ncnc2nc[nH]c12)c1cc2cccc(Cl)c2c(=O)n1-c1ccccc1
- IC50 (second compound 0.0316 µM): 1.46 µM
- IC50 (second compound 0.1 µM): 2.11 µM
- IC50 (second compound 0.316 µM): 1.92 µM
- IC50 (second compound 1 µM): 1.33 µM
- IC50 (second compound 3.16 µM): 1.34 µM
- IC50 (second compound 10 µM): 0.666 µM
- viability, T/C (second compound 0.0316 µM, first compound 0.00949 µM): 73.5%
- viability, T/C (second compound 0.0316 µM, first compound 0.03 µM): 112%
- viability, T/C (second compound 0.0316 µM, first compound 0.0949 µM): 95.4%
- viability, T/C (second compound 0.0316 µM, first compound 0.3 µM): 75.5%
- viability, T/C (second compound 0.0316 µM, first compound 0.949 µM): 61.4%
- viability, T/C (second compound 0.0316 µM, first compound 3 µM): 34.5%
- viability, T/C (second compound 0.1 µM, first compound 0.00949 µM): 106%
- viability, T/C (second compound 0.1 µM, first compound 0.03 µM): 107%
- viability, T/C (second compound 0.1 µM, first compound 0.0949 µM): 87.5%
- viability, T/C (second compound 0.1 µM, first compound 0.3 µM): 102%
- viability, T/C (second compound 0.1 µM, first compound 0.949 µM): 74.7%
- viability, T/C (second compound 0.1 µM, first compound 3 µM): 38.5%
- viability, T/C (second compound 0.316 µM, first compound 0.00949 µM): 78.8%
- viability, T/C (second compound 0.316 µM, first compound 0.03 µM): 104%
- viability, T/C (second compound 0.316 µM, first compound 0.0949 µM): 97.9%
- viability, T/C (second compound 0.316 µM, first compound 0.3 µM): 78.3%
- viability, T/C (second compound 0.316 µM, first compound 0.949 µM): 61.9%
- viability, T/C (second compound 0.316 µM, first compound 3 µM): 43%
- viability, T/C (second compound 1 µM, first compound 0.00949 µM): 97.1%
- viability, T/C (second compound 1 µM, first compound 0.03 µM): 97.4%
- viability, T/C (second compound 1 µM, first compound 0.0949 µM): 90.1%
- viability, T/C (second compound 1 µM, first compound 0.3 µM): 78.1%
- viability, T/C (second compound 1 µM, first compound 0.949 µM): 64.5%
- viability, T/C (second compound 1 µM, first compound 3 µM): 21.1%
- viability, T/C (second compound 3.16 µM, first compound 0.00949 µM): 82%
- viability, T/C (second compound 3.16 µM, first compound 0.03 µM): 83.6%
- viability, T/C (second compound 3.16 µM, first compound 0.0949 µM): 70.7%
- viability, T/C (second compound 3.16 µM, first compound 0.3 µM): 97%
- viability, T/C (second compound 3.16 µM, first compound 0.949 µM): 61.6%
- viability, T/C (second compound 3.16 µM, first compound 3 µM): 22.6%
- viability, T/C (second compound 10 µM, first compound 0.00949 µM): 78.4%
- viability, T/C (second compound 10 µM, first compound 0.03 µM): 64.3%
- viability, T/C (second compound 10 µM, first compound 0.0949 µM): 69.2%
- viability, T/C (second compound 10 µM, first compound 0.3 µM): 66%
- viability, T/C (second compound 10 µM, first compound 0.949 µM): 43.1%
- viability, T/C (second compound 10 µM, first compound 3 µM): 13.7%

SMILES: C#Cc1c(F)ccc2cc(O)cc(-c3ncc4c(N5CC6CCC(C5)N6)nc(OCC56CCCN5CC(F)C6)nc4c3F)c12 (centres undefined) + COc1c(OCCCN2CCOCC2)ccc2c3n(c(=NC(=O)c4cnc(N)nc4)nc12)CCN3
- IC50 (second compound 0.00316 µM): > 10 µM
- IC50 (second compound 0.01 µM): > 10 µM
- IC50 (second compound 0.0316 µM): > 10 µM
- IC50 (second compound 0.1 µM): 1.21 µM
- IC50 (second compound 0.316 µM): 3.64 µM
- IC50 (second compound 1 µM): < 0.0316 µM
- viability, T/C (second compound 0.00316 µM, first compound 0.0316 µM): 89%
- viability, T/C (second compound 0.00316 µM, first compound 0.1 µM): 99.1%
- viability, T/C (second compound 0.00316 µM, first compound 0.316 µM): 101%
- viability, T/C (second compound 0.00316 µM, first compound 1 µM): 109%
- viability, T/C (second compound 0.00316 µM, first compound 3.16 µM): 91.8%
- viability, T/C (second compound 0.00316 µM, first compound 10 µM): 84.7%
- viability, T/C (second compound 0.01 µM, first compound 0.0316 µM): 94.2%
- viability, T/C (second compound 0.01 µM, first compound 0.1 µM): 102%
- viability, T/C (second compound 0.01 µM, first compound 0.316 µM): 79.2%
- viability, T/C (second compound 0.01 µM, first compound 1 µM): 91.6%
- viability, T/C (second compound 0.01 µM, first compound 3.16 µM): 77.9%
- viability, T/C (second compound 0.01 µM, first compound 10 µM): 62.9%
- viability, T/C (second compound 0.0316 µM, first compound 0.0316 µM): 83%
- viability, T/C (second compound 0.0316 µM, first compound 0.1 µM): 82.5%
- viability, T/C (second compound 0.0316 µM, first compound 0.316 µM): 81.5%
- viability, T/C (second compound 0.0316 µM, first compound 1 µM): 77.1%
- viability, T/C (second compound 0.0316 µM, first compound 3.16 µM): 81.8%
- viability, T/C (second compound 0.0316 µM, first compound 10 µM): 57.3%
- viability, T/C (second compound 0.1 µM, first compound 0.0316 µM): 68.4%
- viability, T/C (second compound 0.1 µM, first compound 0.1 µM): 61.8%
- viability, T/C (second compound 0.1 µM, first compound 0.316 µM): 58.1%
- viability, T/C (second compound 0.1 µM, first compound 1 µM): 48.8%
- viability, T/C (second compound 0.1 µM, first compound 3.16 µM): 47.1%
- viability, T/C (second compound 0.1 µM, first compound 10 µM): 49%
- viability, T/C (second compound 0.316 µM, first compound 0.0316 µM): 56.1%
- viability, T/C (second compound 0.316 µM, first compound 0.1 µM): 48.2%
- viability, T/C (second compound 0.316 µM, first compound 0.316 µM): 53.7%
- viability, T/C (second compound 0.316 µM, first compound 1 µM): 42.3%
- viability, T/C (second compound 0.316 µM, first compound 3.16 µM): 63.6%
- viability, T/C (second compound 0.316 µM, first compound 10 µM): 29.8%
- viability, T/C (second compound 1 µM, first compound 0.0316 µM): 42.9%
- viability, T/C (second compound 1 µM, first compound 0.1 µM): 40.9%
- viability, T/C (second compound 1 µM, first compound 0.316 µM): 44.2%
- viability, T/C (second compound 1 µM, first compound 1 µM): 40%
- viability, T/C (second compound 1 µM, first compound 3.16 µM): 40.7%
- viability, T/C (second compound 1 µM, first compound 10 µM): 18.6%
